One test concerns the target PDE4 (Homo sapiens, UniProt Q08499). The experiment in a line: In-vitro assay for PDE4 enzymes, real-time enzyme-coupled spectrophotometric assay (Table 9). Format: biochemical.
The next test addresses PDE4B (Homo sapiens, UniProt Q07343). As to the kind of experiment: In-vitro assay for PDE4 enzymes, real-time enzyme-coupled spectrophotometric assay, PDE4B Activity (Table 10). Format: biochemical.
[1] abbreviates: human PDE4D, activity class, Table 9, read-out: hPDE4D.
The mark [2] stands for this setting: human PDE4B (hPDE4B), enzyme-coupled spectrophotometric assay, read-out: PDE4B Activity, hPDE4B.

SMILES strings stand for the structures. Structures can show the parent of a compound that is named as a salt. Where two headings read alike, the source gives them in different places. Bounds are passed on as bounds.

Chain of PDE4 (Q08499 whole entry): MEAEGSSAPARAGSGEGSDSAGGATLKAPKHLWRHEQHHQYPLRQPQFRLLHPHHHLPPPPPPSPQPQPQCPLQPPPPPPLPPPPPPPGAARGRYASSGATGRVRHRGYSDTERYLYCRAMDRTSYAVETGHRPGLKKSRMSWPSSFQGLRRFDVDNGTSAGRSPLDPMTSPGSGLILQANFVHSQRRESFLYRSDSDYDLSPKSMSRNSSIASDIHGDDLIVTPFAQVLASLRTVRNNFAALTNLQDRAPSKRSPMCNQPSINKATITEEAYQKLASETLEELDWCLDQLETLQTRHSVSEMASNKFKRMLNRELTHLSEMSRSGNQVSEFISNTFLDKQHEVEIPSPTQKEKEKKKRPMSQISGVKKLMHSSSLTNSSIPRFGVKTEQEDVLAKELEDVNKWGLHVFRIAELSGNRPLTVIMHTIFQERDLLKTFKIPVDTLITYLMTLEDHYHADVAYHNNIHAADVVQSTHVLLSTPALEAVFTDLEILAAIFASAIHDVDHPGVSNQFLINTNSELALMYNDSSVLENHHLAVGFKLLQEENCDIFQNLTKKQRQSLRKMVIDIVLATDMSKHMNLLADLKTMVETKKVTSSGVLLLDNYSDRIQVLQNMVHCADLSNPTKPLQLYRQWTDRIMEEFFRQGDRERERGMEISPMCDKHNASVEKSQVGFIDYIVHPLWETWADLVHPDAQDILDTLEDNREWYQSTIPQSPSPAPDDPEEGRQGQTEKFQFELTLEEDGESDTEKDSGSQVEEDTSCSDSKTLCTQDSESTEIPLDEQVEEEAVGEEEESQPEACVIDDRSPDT
Chain of PDE4B (Q07343 whole entry): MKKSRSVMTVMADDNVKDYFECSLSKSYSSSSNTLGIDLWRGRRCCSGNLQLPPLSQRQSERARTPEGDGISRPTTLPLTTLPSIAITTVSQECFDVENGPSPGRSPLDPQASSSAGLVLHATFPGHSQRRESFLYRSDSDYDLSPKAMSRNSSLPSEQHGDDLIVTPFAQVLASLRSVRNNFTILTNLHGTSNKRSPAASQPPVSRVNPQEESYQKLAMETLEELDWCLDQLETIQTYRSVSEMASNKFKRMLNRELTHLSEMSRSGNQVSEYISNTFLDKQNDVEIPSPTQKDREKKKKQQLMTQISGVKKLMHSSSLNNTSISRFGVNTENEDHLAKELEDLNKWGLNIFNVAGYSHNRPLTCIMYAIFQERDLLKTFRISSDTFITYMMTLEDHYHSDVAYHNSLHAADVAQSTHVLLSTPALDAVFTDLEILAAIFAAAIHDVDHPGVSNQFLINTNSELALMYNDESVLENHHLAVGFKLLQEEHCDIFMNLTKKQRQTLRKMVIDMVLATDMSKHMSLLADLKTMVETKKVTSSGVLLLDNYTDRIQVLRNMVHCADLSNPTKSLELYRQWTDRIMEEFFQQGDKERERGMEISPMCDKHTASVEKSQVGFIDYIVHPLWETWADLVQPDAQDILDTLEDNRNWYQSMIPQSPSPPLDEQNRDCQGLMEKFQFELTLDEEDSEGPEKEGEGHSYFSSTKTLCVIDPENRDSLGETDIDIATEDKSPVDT

With `COc1ccc(Cc2cnc(NC(=O)NCCCl)nc2)c(F)c1-c1cccc(C(C)=O)c1` [P-366, 1-[5-(3′-Acetyl-2-fluoro-6-methoxy-biphenyl-3-ylmethyl)-pyrimidin-2-yl]-3-(2-chloro-ethyl)-urea], the IC50 on PDE4 and on PDE4B was < 5 µM throughout.

Consider `O=c1ccc(Cc2ccc(O)c(-c3cccc([N+](=O)[O-])c3)c2)n[nH]1` [P-488, 6-(6-Hydroxy-3′-nitro-biphenyl-3-ylmethyl)-2H-pyridazin-3-one], for which the IC50 is < 5 µM on PDE4 (setting [1]) and 5 to 20 µM at PDE4B (setting [2]).

Turning to `COc1ccc(CN2C(=O)CCC2=O)cc1-c1ccc2c(c1)OCO2` [P-053, 1-(3-Benzo[1,3]dioxol-5-yl-4-methoxy-benzyl)-pyrrolidine-2,5-dione], the IC50 at PDE4 (setting [1]) was in the range of 5 to 20 µM; at PDE4B (setting [2]) it was 21 to 40 µM.

Regarding `NCc1ccc(Cc2ccc(OC(F)F)c(-c3cccc(Cl)c3)c2)cn1` [P-596, C-[5-(3′-Chloro-6-difluoromethoxy-biphenyl-3-ylmethyl)-pyridin-2-yl]-methylamine], the IC50 at PDE4 (setting [1]) and on PDE4B (setting [2]) was < 5 µM in each case.

For the compound `COc1ccc(CN2CCNC(=O)C2)c(F)c1-c1cccc(Cl)c1` [P-623], the IC50 on PDE4 (setting [1]) is < 5 µM; at PDE4B (setting [2]), 5 to 20 µM.

On to `NC(=O)Oc1ccc(Cc2ccc(=O)[nH]n2)cc1-c1cccc([N+](=O)[O-])c1` [P-020, Carbamic acid 3′-nitro-5-(6-oxo-1,6-dihydro-pyridazin-3-ylmethyl)-biphenyl-2-yl ester], for which the IC50 against PDE4 was 5 to 20 µM; against PDE4B, 21 to 40 µM.

`COc1ccc(Cc2ccc(C(N)=O)nc2)c(F)c1-c1cccc(Cl)c1` [P-401, 5-(3′-Chloro-2-fluoro-6-methoxy-biphenyl-3-ylmethyl)-pyridine-2-carboxylic acid amide]: the IC50 on PDE4 (setting [1]) and at PDE4B (setting [2]) was < 5 µM each time.

For `COc1ccc(Cc2cccnc2)c(O)c1-c1cccc([N+](=O)[O-])c1` [P-106], the IC50 on PDE4 (setting [1]) and at PDE4B (setting [2]) was < 5 µM each time.

Consider `COc1ccc(Cc2ccc(C#N)nc2)c(F)c1-c1cccc(Cl)c1` [P-355], for which the IC50 at PDE4 (setting [1]) and at PDE4B (setting [2]) was < 5 µM each time.

Take `COc1ccc(Cn2cc(NC(N)=O)ccc2=O)cc1-c1cccc([N+](=O)[O-])c1` [P-208, [1-(6-Methoxy-3′-nitro-biphenyl-3-ylmethyl)-6-oxo-1,6-dihydro-pyridin-3-yl]-urea]: the IC50 on PDE4 (setting [1]) and at PDE4B (setting [2]) was 5 to 20 µM throughout.

For the compound `COc1ccc(C(=O)c2ccc(N)cc2)cc1-c1ccc2c(c1)OCCO2` [P-578], the IC50 at PDE4 (setting [1]) and at PDE4B (setting [2]) was < 5 µM in each case.

Consider `COc1ccc(Cc2ccc(CNC(=O)Oc3ccccc3)nc2)cc1-c1cccc(Cl)c1` [P-592, [5-(3′-Chloro-6-methoxy-biphenyl-3-ylmethyl)-pyridin-2-ylmethyl]-carbamic acid phenyl ester], for which the IC50 against PDE4 and on PDE4B was < 5 µM throughout.

As for `COc1ccc(Cc2cnc(N)nc2)c(F)c1-c1cccc(C#N)c1` [P-395, 3′-(2-Amino-pyrimidin-5-ylmethyl)-2′-fluoro-6′-methoxy-biphenyl-3-carbonitrile], the IC50 on PDE4 (setting [1]) and on PDE4B (setting [2]) was < 5 µM in each case.

In the case of `COc1ccc(Cc2ccnc(N3CCN(C(N)=O)CC3)c2)c(F)c1-c1cccc(Cl)c1` [P-518, 4-[4-(3′-Chloro-2-fluoro-6-methoxy-biphenyl-3-ylmethyl)-pyridin-2-yl]-piperazine-1-carboxylic acid amide], the IC50 at PDE4 (setting [1]) and on PDE4B (setting [2]) was < 5 µM throughout.

Regarding `COc1ccc(Cc2ccc(N(C)C)nc2)c(F)c1-c1cccc(Cl)c1` [P-473, [5-(3′-Chloro-2-fluoro-6-methoxy-biphenyl-3-ylmethyl)-pyridin-2-yl]-dimethyl-amine], the IC50 at PDE4 (setting [1]) and at PDE4B (setting [2]) was < 5 µM each time.

Consider `COc1ccc(C(O)c2ccnn2C)cc1-c1ccc2c(c1)OCO2` (stereo not shown) [P-073, (3-Benzo[1,3]dioxol-5-yl-4-methoxy-phenyl)-(2-methyl-2H-pyrazol-3-yl)-methanol], for which the IC50 at PDE4 (setting [1]) is < 5 µM; at PDE4B (setting [2]), 21 to 40 µM.

For `COc1ccc(Cc2ccc(S(N)(=O)=O)cc2)c(F)c1-c1cccc(C(C)=O)c1` [P-304], the IC50 at PDE4 (setting [1]) and on PDE4B (setting [2]) was < 5 µM throughout.

Take `COc1ccc(CN2CCCC2=O)cc1-c1cccc(-c2nnco2)c1` [P-186]: the values for the IC50 on PDE4 (setting [1]) and at PDE4B (setting [2]) were 20 to 40 µM and 21 to 40 µM, respectively.

For `COc1ccc(Cc2cccnc2Cl)c(O)c1-c1cccc(N)c1` [P-182], the values for the IC50 on PDE4 (setting [1]) and on PDE4B (setting [2]) were 5 to 20 µM and 21 to 40 µM, respectively.

Regarding `COc1ccc(Cc2ccc(OCCN3CCCCC3)cc2)cc1-c1cccc([N+](=O)[O-])c1` [P-166], the IC50 on PDE4 (setting [1]) and at PDE4B (setting [2]) was < 5 µM throughout.

Turning to `COc1ccc(Cc2ccc(N3CCC[C@H]3C(N)=O)nc2)c(F)c1-c1cccc(Cl)c1` [P-612, (S)-1-[5-(3′-chloro-2-fluoro-6-methoxy-biphenyl-3-ylmethyl)-pyridin-2-yl]-pyrrolidine-2-carboxylic acid amide], the IC50 at PDE4 (setting [1]) and on PDE4B (setting [2]) was < 5 µM each time.

As for `COc1ccc(Cc2ccc(CNC(N)=O)cc2)c(F)c1-c1cccc([N+](=O)[O-])c1` [P-237], the IC50 on PDE4 (setting [1]) and on PDE4B (setting [2]) was < 5 µM in each case.

Regarding `COC(=O)c1cccc(-c2cc(Cc3ccc(F)cc3)ccc2OC)c1` [P-002], the IC50 at PDE4 (setting [1]) and at PDE4B (setting [2]) was < 5 µM throughout.

As for `COc1ccc(Cc2ccc(OC(N)=O)cc2)c(F)c1-c1cccc(Cl)c1` [P-221], the IC50 at PDE4 and at PDE4B was < 5 µM throughout.

For `COc1ccc(C2(c3ccc(F)cc3)CCN(C)CC2)cc1-c1cccc(Cl)c1` [P-564, 4-(3′-Chloro-6-methoxy-biphenyl-3-yl)-4-(4-fluoro-phenyl)-1-methyl-piperidine], the IC50 at PDE4 (setting [1]) is 5 to 20 µM; on PDE4B (setting [2]), 21 to 40 µM.

For the compound `COc1ccc(CN2C(=O)c3ccccc3C2=O)cc1-c1cccc([N+](=O)[O-])c1` [P-042, 2-(6-Methoxy-3′-nitro-biphenyl-3-ylmethyl)-isoindole-1,3-dione], the IC50 is < 5 µM on PDE4 (setting [1]) and 5 to 20 µM at PDE4B (setting [2]).

As to `Nc1ccc(Cc2ccc(OC(F)F)c(-c3cccc(Cl)c3)c2)cn1` [P-611, 5-(3′-Chloro-6-difluoromethoxy-biphenyl-3-ylmethyl)-pyridin-2-ylamine hydrochloride], the IC50 on PDE4 (setting [1]) and on PDE4B (setting [2]) was < 5 µM throughout.

As for `COc1ccc(CNS(=O)(=O)c2ccc(NC(C)=O)cc2)c(F)c1-c1cccc(Cl)c1` [P-251, N-{4-[(3′-Chloro-2-fluoro-6-methoxy-biphenyl-3-ylmethyl)-sulfamoyl]-phenyl}-acetamide], the IC50 at PDE4 (setting [1]) and at PDE4B (setting [2]) was < 5 µM each time.

On to `COc1ccc(CN2CCCC2=O)c(O)c1-c1cccc([N+](=O)[O-])c1` [P-229], for which the IC50 on PDE4 (setting [1]) and on PDE4B (setting [2]) was < 5 µM each time.

In the case of `CCOC(=O)Nc1ccc(Cc2ccc(OC)c(-c3cccc(C#N)c3)c2F)cn1` [P-398, [5-(3′-Cyano-2-fluoro-6-methoxy-biphenyl-3-ylmethyl)-pyridin-2-yl]-carbamic acid ethyl ester], the IC50 at PDE4 (setting [1]) and on PDE4B (setting [2]) was < 5 µM throughout.

`COc1ccc(COC2CCCC2)nc1-c1cccc([N+](=O)[O-])c1` [P-038, 6-cyclopentyloxymethyl-3-methoxy-2-(3-nitro-phenyl)-pyridine]: the IC50 on PDE4 (setting [1]) was 5 to 20 µM; at PDE4B (setting [2]) it was 21 to 40 µM.

Take `COc1ccc(CN2CCNC2=O)nc1-c1cccc([N+](=O)[O-])c1` [P-033, 1-[5-methoxy-6-(3-nitro-phenyl)-pyridin-2-ylmethyl]-imidazolidin-2-one]: the IC50 on PDE4 (setting [1]) and at PDE4B (setting [2]) was 5 to 20 µM in each case.

Turning to `COc1ccc(Cc2ccnn2C)cc1-c1ccc2c(c1)OC(F)(F)O2` [P-115, 5-[3-(2,2-Difluoro-benzo[1,3]dioxol-5-yl)-4-methoxy-benzyl]-1-methyl-1H-pyrazole], the IC50 on PDE4 (setting [1]) and at PDE4B (setting [2]) was < 5 µM each time.

Consider `CNC(=O)NCc1ccc(Cc2ccc(OC)c(-c3cccc(Cl)c3)c2)cn1` [P-593, 1-[5-(3′-chloro-6-methoxy-biphenyl-3-ylmethyl)-pyridin-2-ylmethyl]-3-methyl-urea hydrochloride], for which the IC50 on PDE4 (setting [1]) and on PDE4B (setting [2]) was < 5 µM each time.

In the case of `COc1ccc(Cc2ccc(F)cc2)c(O)c1-c1cccc([N+](=O)[O-])c1` [P-099, 3-(4-Fluoro-benzyl)-6-methoxy-3′-nitro-biphenyl-2-ol], the IC50 on PDE4 (setting [1]) and at PDE4B (setting [2]) was < 5 µM throughout.

For the compound `COc1ccc(Cc2ccc(NC(N)=O)cc2)nc1-c1cccc(Cl)c1` [P-376, {4-[6-(3-chloro-phenyl)-5-methoxy-pyridin-2-ylmethyl]-phenyl}-urea], the IC50 at PDE4 (setting [1]) and on PDE4B (setting [2]) was < 5 µM in each case.

With `COc1ccc(Cc2ccc(CO)nc2)c(F)c1-c1cccc(Cl)c1` [P-599, [5-(3′-Chloro-2-fluoro-6-methoxy-biphenyl-3-ylmethyl)-pyridin-2-yl]-methanol], the IC50 on PDE4 (setting [1]) and at PDE4B (setting [2]) was < 5 µM throughout.

In the case of `COc1ccc(Cn2cncn2)nc1-c1cccc([N+](=O)[O-])c1` [P-024, 3-methoxy-2-(3-nitro-phenyl)-6-[1,2,4]triazol-1-ylmethyl-pyridine], the IC50 on PDE4 (setting [1]) is < 5 µM; on PDE4B (setting [2]) it was 21 to 40 µM.

Turning to `COc1ccc(Cn2ccc(N)cc2=O)cc1-c1cccc([N+](=O)[O-])c1` [P-215, 4-Amino-1-(6-methoxy-3′-nitro-biphenyl-3-ylmethyl)-1H-pyridin-2-one], the IC50 at PDE4 (setting [1]) and at PDE4B (setting [2]) was 5 to 20 µM throughout.

On to `COc1ccc(Cc2cccc(CO)c2)cc1-c1cccc([N+](=O)[O-])c1` [P-103, [3-(6-Methoxy-3′-nitro-biphenyl-3-ylmethyl)-phenyl]-methanol], for which the IC50 at PDE4 (setting [1]) and at PDE4B (setting [2]) was < 5 µM throughout.

On to `CNC(=O)NCc1ccc(Cc2ccc(OC)c(-c3cccc(Cl)c3)c2F)cn1` [P-460, 1-[5-(3′-Chloro-2-fluoro-6-methoxy-biphenyl-3-ylmethyl)-pyridin-2-ylmethyl]-3-methyl-urea hydrochloride], for which the IC50 on PDE4 (setting [1]) and at PDE4B (setting [2]) was < 5 µM in each case.
